Measurements: PubChem BioAssay (NCI)
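At the GI50, growth is halved. The concentration for full growth arrest is given as TGI.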

What was measured:
Assay in all cases: inhibition of tumour cell growth, NCI panel, 384-well format
HT29 colon = system: HT29 colon
T-47D breast = system: T-47D breast
MDA-MB-468 breast = system: MDA-MB-468 breast
SK-MEL-5 melanoma = system: SK-MEL-5 melanoma
MALME-3M melanoma = system: MALME-3M melanoma
KM12 colon = system: KM12 colon
NCI-H522 lung = system: NCI-H522 lung
OVCAR-4 ovarian = system: OVCAR-4 ovarian
A549 NSCLC = system: A549 NSCLC
SF-268 CNS = system: SF-268 CNS
SW-620 colon = system: SW-620 colon
HOP-62 NSCLC = system: HOP-62 NSCLC
CAKI-1 renal = system: CAKI-1 renal
HCT-15 colon = system: HCT-15 colon
MDA-MB-231 breast = system: MDA-MB-231 breast
SNB-75 CNS = system: SNB-75 CNS
MOLT-4 leukemia = system: MOLT-4 leukemia
A498 renal = system: A498 renal
SK-MEL-2 melanoma = system: SK-MEL-2 melanoma
SF-539 CNS = system: SF-539 CNS
M14 melanoma = system: M14 melanoma
SR leukemia = system: SR leukemia
UACC-62 melanoma = system: UACC-62 melanoma
OVCAR-5 ovarian = system: OVCAR-5 ovarian
HOP-92 NSCLC = system: HOP-92 NSCLC
U251 glioblastoma = system: U251 glioblastoma
RXF 393 renal = system: RXF 393 renal
DU-145 prostate = system: DU-145 prostate
ACHN renal = system: ACHN renal
HCC-2998 colon = system: HCC-2998 colon
SF-295 CNS = system: SF-295 CNS
NCI-H23 lung = system: NCI-H23 lung
PC-3 prostate = system: PC-3 prostate
SK-OV-3 ovarian = system: SK-OV-3 ovarian
RPMI-8226 leukemia = system: RPMI-8226 leukemia
NCI-H226 lung = system: NCI-H226 lung
MDA-MB-435 melanoma = system: MDA-MB-435 melanoma
EKVX NSCLC = system: EKVX NSCLC
CCRF-CEM leukemia = system: CCRF-CEM leukemia
SNB-19 CNS = system: SNB-19 CNS
786-0 renal = system: 786-0 renal
COLO 205 colon = system: COLO 205 colon
NCI/ADR-RES ovarian = system: NCI/ADR-RES ovarian
HL-60(TB) leukemia = system: HL-60(TB) leukemia
NCI-H460 NSCLC = system: NCI-H460 NSCLC
HS 578T breast = system: HS 578T breast
IGROV1 ovarian = system: IGROV1 ovarian
BT-549 breast = system: BT-549 breast
TK-10 renal = system: TK-10 renal
MCF7 breast = system: MCF7 breast
OVCAR-8 ovarian = system: OVCAR-8 ovarian
SK-MEL-28 melanoma = system: SK-MEL-28 melanoma
SN12C renal = system: SN12C renal
OVCAR-3 ovarian = system: OVCAR-3 ovarian
UACC-257 melanoma = system: UACC-257 melanoma
NCI-H322M lung = system: NCI-H322M lung

Q: Which GI50 (HT29 colon) does the source give for `CC(=O)c1cc2c(o1)C(=O)c1ccccc1C2=O` here?
A: 175 nM

Q: And the TGI (HT29 colon)?
A: 316 nM

Q: What about the GI50 (T-47D breast) of the same molecule?
A: 198 nM

Q: What about the TGI (T-47D breast) of the same molecule?
A: 439 nM

Q: And the GI50 (MDA-MB-468 breast)?
A: 220 nM

Q: And the TGI (MDA-MB-468 breast)?
A: 565 nM

Q: And the GI50 (SK-MEL-5 melanoma)?
A: 55.8 nM

Q: And the TGI (SK-MEL-5 melanoma)?
A: 178 nM

Q: And the GI50 (MALME-3M melanoma)?
A: 148 nM

Q: What about the TGI (MALME-3M melanoma) of the same molecule?
A: 280 nM

Q: And the GI50 (KM12 colon)?
A: 299 nM

Q: And the TGI (KM12 colon)?
A: 1200 nM

Q: What about the GI50 (NCI-H522 lung) of the same molecule?
A: 153 nM

Q: And the TGI (NCI-H522 lung)?
A: 289 nM

Q: What about the GI50 (OVCAR-4 ovarian) of the same molecule?
A: 156 nM

Q: What about the TGI (OVCAR-4 ovarian) of the same molecule?
A: 295 nM

Q: And the GI50 (A549 NSCLC)?
A: 176 nM

Q: What about the TGI (A549 NSCLC) of the same molecule?
A: 317 nM

Q: And the GI50 (SF-268 CNS)?
A: 234 nM

Q: What about the TGI (SF-268 CNS) of the same molecule?
A: 818 nM

Q: What about the GI50 (SW-620 colon) of the same molecule?
A: 175 nM

Q: What about the TGI (SW-620 colon) of the same molecule?
A: 367 nM

Q: And the GI50 (HOP-62 NSCLC)?
A: 37.5 nM

Q: And the TGI (HOP-62 NSCLC)?
A: 133 nM

Q: What about the GI50 (CAKI-1 renal) of the same molecule?
A: 1030 nM

Q: And the TGI (CAKI-1 renal)?
A: 2210 nM

Q: What about the GI50 (HCT-15 colon) of the same molecule?
A: 157 nM

Q: And the TGI (HCT-15 colon)?
A: 294 nM

Q: What about the GI50 (MDA-MB-231 breast) of the same molecule?
A: 293 nM

Q: And the TGI (MDA-MB-231 breast)?
A: 1200 nM

Q: And the GI50 (SNB-75 CNS)?
A: 34.1 nM

Q: What about the TGI (SNB-75 CNS) of the same molecule?
A: 101 nM

Q: What about the GI50 (MOLT-4 leukemia) of the same molecule?
A: 215 nM

Q: And the TGI (MOLT-4 leukemia)?
A: 437 nM

Q: What about the GI50 (A498 renal) of the same molecule?
A: 178 nM

Q: What about the TGI (A498 renal) of the same molecule?
A: 318 nM

Q: And the GI50 (SK-MEL-2 melanoma)?
A: 269 nM

Q: What about the TGI (SK-MEL-2 melanoma) of the same molecule?
A: 434 nM

Q: What about the GI50 (SF-539 CNS) of the same molecule?
A: 159 nM

Q: And the TGI (SF-539 CNS)?
A: 296 nM

Q: What about the GI50 (M14 melanoma) of the same molecule?
A: 168 nM

Q: And the TGI (M14 melanoma)?
A: 306 nM

Q: And the GI50 (SR leukemia)?
A: 156 nM

Q: And the TGI (SR leukemia)?
A: 295 nM

Q: What about the GI50 (UACC-62 melanoma) of the same molecule?
A: 168 nM

Q: And the TGI (UACC-62 melanoma)?
A: 306 nM

Q: What about the GI50 (OVCAR-5 ovarian) of the same molecule?
A: 149 nM

Q: And the TGI (OVCAR-5 ovarian)?
A: 283 nM

Q: And the GI50 (HOP-92 NSCLC)?
A: 363 nM

Q: And the TGI (HOP-92 NSCLC)?
A: 1390 nM

Q: And the GI50 (U251 glioblastoma)?
A: 194 nM

Q: And the TGI (U251 glioblastoma)?
A: 503 nM

Q: And the GI50 (RXF 393 renal)?
A: 163 nM

Q: And the TGI (RXF 393 renal)?
A: 326 nM

Q: And the GI50 (DU-145 prostate)?
A: 137 nM

Q: And the TGI (DU-145 prostate)?
A: 268 nM

Q: What about the GI50 (ACHN renal) of the same molecule?
A: 1310 nM

Q: What about the TGI (ACHN renal) of the same molecule?
A: 2590 nM

Q: What about the GI50 (HCC-2998 colon) of the same molecule?
A: 160 nM

Q: And the TGI (HCC-2998 colon)?
A: 305 nM

Q: And the GI50 (SF-295 CNS)?
A: 126 nM

Q: What about the TGI (SF-295 CNS) of the same molecule?
A: 255 nM

Q: And the GI50 (NCI-H23 lung)?
A: 33.2 nM

Q: What about the TGI (NCI-H23 lung) of the same molecule?
A: 138 nM

Q: And the GI50 (PC-3 prostate)?
A: 259 nM

Q: And the TGI (PC-3 prostate)?
A: 1140 nM

Q: And the GI50 (SK-OV-3 ovarian)?
A: 1030 nM

Q: What about the TGI (SK-OV-3 ovarian) of the same molecule?
A: 2210 nM

Q: What about the GI50 (RPMI-8226 leukemia) of the same molecule?
A: 132 nM

Q: And the TGI (RPMI-8226 leukemia)?
A: 374 nM

Q: What about the GI50 (NCI-H226 lung) of the same molecule?
A: 166 nM

Q: And the TGI (NCI-H226 lung)?
A: 303 nM

Q: What about the GI50 (MDA-MB-435 melanoma) of the same molecule?
A: 156 nM

Q: And the TGI (MDA-MB-435 melanoma)?
A: 291 nM

Q: What about the GI50 (EKVX NSCLC) of the same molecule?
A: 363 nM

Q: And the TGI (EKVX NSCLC)?
A: 1470 nM

Q: What about the GI50 (CCRF-CEM leukemia) of the same molecule?
A: 357 nM

Q: What about the TGI (CCRF-CEM leukemia) of the same molecule?
A: 1090 nM

Q: And the GI50 (SNB-19 CNS)?
A: 175 nM

Q: And the TGI (SNB-19 CNS)?
A: 322 nM

Q: What about the GI50 (786-0 renal) of the same molecule?
A: 707 nM

Q: And the TGI (786-0 renal)?
A: 2040 nM

Q: What about the GI50 (COLO 205 colon) of the same molecule?
A: 190 nM

Q: What about the TGI (COLO 205 colon) of the same molecule?
A: 336 nM

Q: What about the GI50 (NCI/ADR-RES ovarian) of the same molecule?
A: 215 nM

Q: What about the TGI (NCI/ADR-RES ovarian) of the same molecule?
A: 562 nM

Q: And the GI50 (HL-60(TB) leukemia)?
A: 202 nM

Q: And the TGI (HL-60(TB) leukemia)?
A: 347 nM

Q: What about the GI50 (NCI-H460 NSCLC) of the same molecule?
A: 172 nM

Q: What about the TGI (NCI-H460 NSCLC) of the same molecule?
A: 314 nM

Q: And the GI50 (HS 578T breast)?
A: 179 nM

Q: What about the TGI (HS 578T breast) of the same molecule?
A: 319 nM

Q: And the GI50 (IGROV1 ovarian)?
A: 1230 nM

Q: What about the TGI (IGROV1 ovarian) of the same molecule?
A: 2490 nM

Q: What about the GI50 (BT-549 breast) of the same molecule?
A: 141 nM

Q: What about the TGI (BT-549 breast) of the same molecule?
A: 272 nM

Q: And the GI50 (TK-10 renal)?
A: 1100 nM

Q: What about the TGI (TK-10 renal) of the same molecule?
A: 2290 nM

Q: What about the GI50 (MCF7 breast) of the same molecule?
A: 165 nM

Q: And the TGI (MCF7 breast)?
A: 305 nM

Q: What about the GI50 (OVCAR-8 ovarian) of the same molecule?
A: 236 nM

Q: And the TGI (OVCAR-8 ovarian)?
A: 669 nM

Q: And the GI50 (SK-MEL-28 melanoma)?
A: 186 nM

Q: And the TGI (SK-MEL-28 melanoma)?
A: 336 nM

Q: And the GI50 (SN12C renal)?
A: 165 nM

Q: What about the TGI (SN12C renal) of the same molecule?
A: 309 nM

Q: And the GI50 (OVCAR-3 ovarian)?
A: 165 nM

Q: What about the TGI (OVCAR-3 ovarian) of the same molecule?
A: 315 nM

Q: What about the GI50 (UACC-257 melanoma) of the same molecule?
A: 126 nM

Q: What about the TGI (UACC-257 melanoma) of the same molecule?
A: 254 nM

Q: What about the GI50 (NCI-H322M lung) of the same molecule?
A: 177 nM

Q: And the TGI (NCI-H322M lung)?
A: 317 nM
